Here are results for two substances from patent publication US20050069907A1, “Methods for using double-mutant RNA polymerases with reduced discrimination between non-canonical and canonical nucleoside triphosphates” (priority 2002, published 2005).

A value given as a limit tells only on which side of the number the result lay.

One experiment relates to poly(dC). Put plainly: Apparent miscoding on homopolymeric template poly(dC). The format is biochemical. The following applies: poly(dC). The method, then:
Transcription reactions: Transcription reactions were carried out in 40 mM Tris-Cl pH 8.0, 15 mM MgCl2, and 5 mM DTT or 20 mM Manganese Citrate pH 8.0, 5 mM DTT at 37° C. Template, polymerase, and NTP concentrations were as indicated in the legends to the figures and tables. Relative activity determinations were made by taking 4 μl aliquots of reactions at 5, 10, and 20 minute time points and spotting on to DE81 filter paper. Unincorporated nucleotides were separated from incorporated nucleotides by washing the filter paper with 0.5 M KH2PO4 pH 7.0 and retained radioactive nucleotide was quantitated with a Molecular Dynamics phosphorimager. To evaluate rNTP/dNTP selectivity, reactions were run with 4 rNTPs and pT75 as template and α-P^32 rNTPs or α-P^32 dNTPs were used to label the transcripts. The relative rate of incorporation of an rNTP vs. its cognate dNTP was determined from the relative percentages of labeled rNTP vs. dNTP incorporated into DE81 retainable RNA at 5, 10, and 20 minute time points. Apparent miscoding frequencies were determined similarly, though in this instance the template was a single-stranded homopolymer and the reaction contained the complementary unlabeled rNTP, and complementary α-P^32 rNTP or one of the 3 non-complementary α-P^32 rNTPs. The relative percentages of labeled complementary vs. non-complementary rNTPs incorporated at 5, 10 and 20 minute time points gave an apparent miscoding rate. The rNTP/dNTP selectivity assay was used to test the following T7 RNAP mutants for effects on substrate discrimination: D537S, D537E, S539A, R5S1S, D552S, R627S, K631S, L637A, Y639S, Y639F, Y639A, G640A, F644A, G645A, Q649S, […], H811S, H811A, D812A, D812E, D812S, D812N, D879E+ΔF882+ΔA883, D879E+A881T+ΔA883, D879E+F884+A885, D879E+F882Y, D879E+ΔA883, D879E+F882W, D879E.
An increase in miscoding would be reflected in an increase in the rate of incorporation of the non-complementary NTP into RNA.
Numbers are averages from 2 experiments and reflect the ratio of the percentages of labeled rNTPs incorporated into RNA in reactions in which unlabeled complementary rNTPs were in great excess (0.5 mM) to labeled complementary or non-complementary rNTPs. Templates were at 0.1 mg/ml. Polymerases were at 10^−8 M in Mg^2+ buffer and 10^−7 M in Mn^2+ buffer.
*The upper number refers to results obtained in Mg^2+ buffer, the lower number to results in Mn^2+ buffer. n.d.: G640A, Y639A, Y639S were poorly active in Mn^2+ buffer, or on poly(dT) under all conditions.

A further experiment has as its system pT75. As to the kind of experiment: Activity with NTPs containing different 2′-substituents. The format is biochemical. Also noted: unit not given here. The method, then:
Activity was determined with pT75 as template but with one of the rNTPs replaced with a dNTP or a 2′-modified NTP. The labeling NTP was UTP (in reactions with 2′-modified CTPs or ATPs) or CTP (in reactions with 2′-modified UTPs). Y639F and Y639M represent enzymes with substitutions of the wild-type (W.T.) tyrosine at position 639 by phenyalanine (F) or methionine (M), respectively.

Experiment [1] can be described thus: 2′,3′-dideoxy NTP preference (relative specificity kcat/Km NTP vs ddNTP). The format is biochemical. The source says: Numbers reflect the relative specificity (kcat/Km) for an NTP vs. the corresponding ddNTP. Relative specificities could not be evaluated for the wild-type T7 RNAP because the ddNTPs are such poor substrates, but these relative specificities appear to be at least 150-fold.

The conditions of experiment [2]: transcripts synthesized in vivo; cited from earlier work.
Experiment [3] relates to 12 base DNA or RNA primers hybridized to a DNA template. Put plainly: DNA- and RNA-primed synthesis of DNA and RNA. The format is biochemical. The source says:
DNA- and RNA-primed synthesis of DNA and RNA: In the assays described so far de novo initiated synthesis has been examined. T7 RNAP can also extend RNA primers. Therefore, the abilities of both polymerase to carry out DNA or RNA primed synthesis of DNA and RNA (FIG. 5) were examined.
Transcription reactions contained end-labeled 12 base DNA or RNA primers of identical sequence (GGACACGGCGAA, SEQ ID NO: 4) hybridized to a DNA template ([…] TAAGTATCC, SEQ ID NO: 5). Primer-template concentration was 10^-5 M. Reactions contained the indicated polymerases (10^-7 M) and NTPs. NTP concentrations and electrophoresis as in FIG. 1.

The next experiment relates to supercoiled pT75. As to the kind of experiment: Transcript elongation rate in 3 rNTP + 1 dNTP reactions. The format is biochemical. The procedure:
Elongation rate determinations were carried out as described (Golomb and Chamberlin, 1974) with some variations (Bonner, et al., 1994).
Elongation rates of Y639F in reactions containing a single dNTP: Elongation rates for Y639F in reactions with 4 rNTPs or 1 dNTP and 3 rNTPs were determined by analyzing aliquots, taken at 10 second intervals, from transcription reactions initiated on supercoiled PT75 by adding NTPs to otherwise complete reaction mixes (FIG. 6).
The template was supercoiled pT75 at 5×10^-7 M. Y639F polymerase was used at a concentration of 10^-6 M. Reactions contained the indicated NTPs. Labeling was with α-P32-rATP (lane e) or α-P32-rGTP (other lanes). After initiation of the reactions aliquots were taken at 10 second intervals and analyzed on 1% agarose denaturing-formaldehyde gels. […] The bars indicate the positions of λ DNA markers.
When analyzed on denaturing agarose gels (FIG. 6) the heterogeneously sized transcripts from these reactions are resolved as a smear with the trailing edge of the smear corresponding to transcripts initiated at t=0 and from which the maximal transcript elongation rate can be determined (Golomb and Chamberlin, 1974; Bonner, et al., 1994). The following elongation rate reductions (relative to a ‘4 rNTP’ reaction) were obtained for reactions containing a 3 rNTPS and 1 dNTP:dATP, ˜3-fold; dUTP, ˜2-fold; dGTP ˜1.5-fold; dCTP, 1-1.5-fold. Because of its poor activity in reactions with dNTPs it was difficult to determine the corresponding elongation rate reductions for the W.T. enzyme.

For the substance “W.T.: wild-type T7 RNA polymerase [reference compound]”, the entries for the “Relative rate of incorporation GTP/ATP” value in the experiment on poly(dC) (Mg^2+ buffer) and in the experiment with poly(dC) (Mn^2+ buffer) were 233 and 9.3, respectively. Also, the entries for the “Relative rate of incorporation GTP/CTP” value in the experiment with poly(dC) (Mg^2+ buffer) and in the experiment on poly(dC) (Mn^2+ buffer) were 400 and 32, respectively. Further, in the experiment with poly(dC) (Mn^2+ buffer), the “Relative rate of incorporation GTP/UTP” value is 53 (Mn2+)*. Further, the Activity in the experiment with pT75 (2′-F-ATP replacing ATP) is recorded as 6.6 ± .12; in the experiment with pT75 (2′-F-CTP replacing CTP), 3.4 ± .22; in the experiment on pT75 (2′-F-UTP replacing UTP), 3.1 ± .14; with pT75 (2′-NH2-ATP replacing ATP), 18 ± .39; in the experiment with pT75 (2′-NH2-CTP replacing CTP), 34 ± .86; with pT75 (2′-NH2-UTP replacing UTP), 5.9 ± .27. Moreover, the Activity in the experiment with pT75 (2′-dATP replacing ATP) is recorded as 2.7 ± .28; with pT75 (2′-dCTP replacing CTP) it was 1.6 ± .16; in the experiment on pT75 (2′-dUTP replacing UTP), 2.4 ± .11; in the experiment with pT75 (ATP) it was 100; in the experiment with pT75 (CTP) it was 100; with pT75 (UTP), 100. Besides, the “Relative specificity NTP vs. corresponding ddNTP” value in experiment [1] is given as “at least 150 fold”.
Consider “Y639F: T7 RNAP with wild-type tyrosine at position 639 substituted by phenylalanine”, for which, in experiment [2], the “Protein per transcript compared to transcripts synthesized by wild-type enzyme” value is on record as “½-⅓”. For the same substance, in experiment [3], the “Extension of DNA and RNA primers with dNTPs less efficient than with rNTPs” value is given as approximately 4 fold. In addition, the “Relative rate of incorporation GTP/ATP” value in the experiment on poly(dC) (Mg^2+ buffer) was 338; in the experiment with poly(dC) (Mn^2+ buffer) it was 8. For the same substance, the entries for the “Relative rate of incorporation GTP/CTP” value in the experiment on poly(dC) (Mg^2+ buffer) and with poly(dC) (Mn^2+ buffer) were 550 and 40, respectively. Besides, the figures for the “Relative rate of incorporation GTP/UTP” value in the experiment on poly(dC) (Mg^2+ buffer) and in the experiment with poly(dC) (Mn^2+ buffer) were more than 1760 and 55, respectively. Besides, the “Elongation rate reduction relative to 4 rNTP reaction” value in the experiment on supercoiled pT75 (3 rNTPs and dATP) was approximately 3 fold; in the experiment on supercoiled pT75 (3 rNTPs and dCTP), 1-1.5 fold; in the experiment on supercoiled pT75 (3 rNTPs and dGTP), approximately 1.5 fold; in the experiment with supercoiled pT75 (3 rNTPs and dUTP), approximately 2 fold. The Activity in the experiment on pT75 (2′-F-ATP replacing ATP) is 50 ± 1.4; in the experiment with pT75 (2′-F-CTP replacing CTP), 63 ± 3.1; in the experiment on pT75 (2′-F-UTP replacing UTP), 73 ± 2.6; in the experiment on pT75 (2′-NH2-ATP replacing ATP), 21 ± .75; in the experiment on pT75 (2′-NH2-CTP replacing CTP), 60 ± 2.5; in the experiment on pT75 (2′-NH2-UTP replacing UTP), 12 ± .41. Moreover, the Activity with pT75 (2′-dATP replacing ATP) amounted to 40 ± 1.3; in the experiment with pT75 (2′-dCTP replacing CTP) it was 57 ± 1.7; with pT75 (2′-dUTP replacing UTP), 46 ± 2.4; in the experiment with pT75 (ATP), 96 ± 3.0; with pT75 (CTP), 103 ± 2.3; in the experiment with pT75 (UTP), 95 ± 6.7.
